Data from patent US9902776B2, “Anti-EGFR antibody and anti-c-Met/anti-EGFR bispecific antibodies comprising the same” (Samsung Electronics Co., Ltd., priority 2013, dated 2018).

B1: scFv of huAbF46: scFv of huAbF46, structure VH-linker-VL with linker SEQ ID NO: 54 (protein)
scFv: EVQLVESGGGLVQPGGSLRLSCAASGFTFTDYYMSWVRQAPGKGLEWLGFIRNKANGYTTEYSASVKGRFTISRDNSKNTLYLQMNSLRAEDTAVYYCARDNWFAYWGQGTLVTVSSGLGGLGGGGSGGGGSGGSSGVGSDIQMTQSPSSLSASVGDRVTITCKSSQSLLASGNQNNYLAWHQQKPGKAPKMLIIWASTRVSGVPSRFSGSGSGTDFTLTISSLQPEDFATYYCQQSYSAPLTFGQGTKVEIKR

Experiments:
[1] = system: SNU5 cells; assay: SNU5 xenograft tumor model in CB.17-SCID mice; format: in vivo; conditions: intravenous, 4 weeks; antibodies 1 mg/kg once a week, Irinotecan 10 mg/kg twice a week; initial size 100 mm^3
Experimental: SNU5 cells (ATCC) were injected into dorsal subcutis of 5-6 week old CB.17-SCID mice (Shanghai SLAC Laboratory Animal Co. Ltd.) at the amount of 3×10^6 cell/mouse, to prepare tumor models. When the tumor volume reaches 100 mm^3, 1 mg/kg of L3-1Y-IgG2 and 1 mg/kg of anti-c-Met/anti-EGFR bispecific antibody ME22S were intravenously administered alone or in combination once a week for 4 weeks in total. A group where PBS is intravenously administered thereto was used as a negative control, and a group where 10 mg/kg of an anticancer drug, Irinotecan (Pfizer Inc.), was intravenously administered thereto twice a week for 4 weeks in total, was used as a positive control. The tumor size (length×breadth×height) was measured twice each week, and at the last week, the mice were autopsied.

[2] = target: c-Met (Homo sapiens, UniProt P08581); assay: Specificity of expressed scFv of huAbF46; format: binding; parameters: endogenous in cells; host or cells: SNU638 (A8, A11); MKN45 (A11); conditions: after expression
From the text: For use in constructing an scFv of the huAbF46 antibody from the heavy and light chain variable regions of the huAbF46 antibody, a gene was designed to have the structure of “VH-linker-VL” for each of the heavy and the light chain variable region, with the linker including the amino acid sequence “[…]” (SEQ ID NO: 54). A polynucleotide sequence (SEQ ID NO: 55) encoding the designed scFv of huAbF46 was synthesized in Bioneer and an expression vector for the polynucleotide had the nucleotide sequence of SEQ ID NO: 56.

Chain of c-Met (P08581 25-1390): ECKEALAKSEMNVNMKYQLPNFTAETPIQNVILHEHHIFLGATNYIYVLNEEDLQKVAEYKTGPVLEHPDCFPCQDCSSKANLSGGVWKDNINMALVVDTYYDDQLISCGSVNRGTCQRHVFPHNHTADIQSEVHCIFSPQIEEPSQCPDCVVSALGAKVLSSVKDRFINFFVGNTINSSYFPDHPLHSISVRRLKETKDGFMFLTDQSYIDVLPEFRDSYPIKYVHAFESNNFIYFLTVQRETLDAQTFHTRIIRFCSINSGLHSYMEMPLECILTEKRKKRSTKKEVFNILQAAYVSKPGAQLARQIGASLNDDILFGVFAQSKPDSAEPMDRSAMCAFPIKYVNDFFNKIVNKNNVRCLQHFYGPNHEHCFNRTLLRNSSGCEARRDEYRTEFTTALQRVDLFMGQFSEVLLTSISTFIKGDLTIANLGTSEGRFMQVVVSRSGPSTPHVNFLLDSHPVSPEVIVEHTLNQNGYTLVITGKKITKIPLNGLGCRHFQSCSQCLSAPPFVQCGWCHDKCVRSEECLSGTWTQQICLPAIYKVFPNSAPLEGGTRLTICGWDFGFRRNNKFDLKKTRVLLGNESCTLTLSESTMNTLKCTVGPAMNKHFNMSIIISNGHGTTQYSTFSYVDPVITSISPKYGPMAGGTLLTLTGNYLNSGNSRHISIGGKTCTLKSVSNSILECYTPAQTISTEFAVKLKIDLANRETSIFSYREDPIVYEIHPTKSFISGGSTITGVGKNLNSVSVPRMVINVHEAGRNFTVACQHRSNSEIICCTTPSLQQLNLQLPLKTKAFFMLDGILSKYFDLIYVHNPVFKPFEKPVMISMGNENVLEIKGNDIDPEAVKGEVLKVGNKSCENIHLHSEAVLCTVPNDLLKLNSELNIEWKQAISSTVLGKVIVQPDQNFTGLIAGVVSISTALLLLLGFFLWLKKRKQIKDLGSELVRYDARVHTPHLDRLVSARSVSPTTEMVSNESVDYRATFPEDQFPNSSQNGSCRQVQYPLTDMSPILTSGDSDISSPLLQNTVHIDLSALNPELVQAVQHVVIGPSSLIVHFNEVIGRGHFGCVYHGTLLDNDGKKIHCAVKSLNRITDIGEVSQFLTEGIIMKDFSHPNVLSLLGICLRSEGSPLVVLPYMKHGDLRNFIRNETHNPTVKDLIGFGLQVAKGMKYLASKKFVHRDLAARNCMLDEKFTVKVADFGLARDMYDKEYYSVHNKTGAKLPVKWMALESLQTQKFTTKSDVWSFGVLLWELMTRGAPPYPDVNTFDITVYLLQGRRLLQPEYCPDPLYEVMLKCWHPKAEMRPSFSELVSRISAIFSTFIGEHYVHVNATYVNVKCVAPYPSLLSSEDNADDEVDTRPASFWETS

Row | Molecule | final tumor size [1] | specificity to c-Met [2]
1 | CCc1c2c(nc3ccc(OC(=O)N4CCC(N5CCCCC5)CC4)cc13)-c1cc3c(c(=O)n1C2)COC(=O)[C@]3(O)CC [Irinotecan, reference compound] | about 72 mm^3 | 
2 | B1 |  | exhibit specificity to c-Met
